Positions of bridges follow the written chain, without caps; N, C: chain ends. Residues, ends and D or L forms follow the SMILES beside them.
Biological target: T1, HTRA4^PD/PDZ-Y200A (Homo sapiens, UniProt P83105, Y200A)
T1 construct: HTRA4 (HTRA4^PD/PDZ; G153-N476); made in house; host or cells: E. coli
T1 sequence (P83105 153-476 Y200A): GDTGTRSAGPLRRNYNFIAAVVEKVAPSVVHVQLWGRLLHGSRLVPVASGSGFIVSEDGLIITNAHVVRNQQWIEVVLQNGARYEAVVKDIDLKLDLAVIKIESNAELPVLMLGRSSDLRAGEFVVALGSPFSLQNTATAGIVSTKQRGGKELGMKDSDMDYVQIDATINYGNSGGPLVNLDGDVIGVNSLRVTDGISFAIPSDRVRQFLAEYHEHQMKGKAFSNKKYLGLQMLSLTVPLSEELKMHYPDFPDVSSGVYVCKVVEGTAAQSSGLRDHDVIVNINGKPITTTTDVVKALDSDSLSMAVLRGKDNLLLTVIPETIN
Experiment: H2-OPT enzyme assay, chimeric HTRA4^PD/PDZ-Y200A
Format: biochemical
Details: 1 µM HTRA4^PD/PDZ-Y200A, 10 µM 3B3, H2-OPT; read-out: Inhibition (reduction of enzyme activity) of HTRA4^PD/PDZ-Y200A
Description: The protease domains of human HTRA1 (HTRA1^PD; D161-K379) and mouse HTRA1 (mHTRA1^PD; D161-K379) contained an N-terminal His6 tag followed by a TEV protease cleavage sequence as described recently. The chimeric HTRA1^PD-A202Y was made by introducing an A202Y mutation to the human HTRA1^PD construct. […] The protease-PDZ domains of human HTRA3 (HTRA3^PD/PDZ; L130-M453) and HTRA4 (HTRA4^PD/PDZ; G153-N476) contained a C-terminal thrombin cleavage sequence followed by a His6 tag[44]. The chimeric HTRA4^PD/PDZ-Y200A was made by introducing a Y200A mutation to the HTRA4^PD/PDZ construct. These constructs were expressed in E. coli and purified as described[38],[44],[47]. […] The purity of the trimeric HTRA proteins after size exclusion chromatography was assessed by SDS-PAGE and LC/MS. […]
Assays with the fluorescence-quenched synthetic substrate Mca-IRRVSYSFK(Dnp)K (H2-OPT)[38],[60] were carried out essentially as described. […] The kinetics of substrate cleavage was measured at 37 °C on a SpectraMax M5 microplate reader with excitation of 328 nm and emission of 393 nm. The determined initial rates of cleavage were expressed as percent of control (DMSO control) after subtracting the baseline rates (without enzyme). IC50 values were determined by Sigmoidal 4PL modeling of multiple data points from serial dilutions of CKPs using Prism 9 software (GraphPad). […]

## CC[C@H](C)[C@H](NC(=O)[C@@H]1CCCN1C(=O)[C@H](CC(=O)O)NC(=O)[C@H](C)NC(=O)[C@@H](N)Cc1c[nH]cn1)C(=O)N[C@H]1CSSC[C@@H]2NC(=O)[C@H](Cc3ccccc3)NC(=O)[C@H](Cc3c[nH]c4ccccc34)NC(=O)[C@H](C)NC(=O)CNC(=O)[C@H](CO)NC(=O)[C@@H]3CSSC[C@@H](C(=O)NCC(=O)N4CCC[C@H]4C(=O)N[C@@H](Cc4ccc(O)cc4)C(=O)N[C@H](C(=O)NCC(N)=O)C(C)C)NC(=O)[C@H](CO)NC(=O)[C@H](Cc4c[nH]c5ccccc45)NC(=O)[C@H]([C@@H](C)O)NC(=O)[C@H](C)NC(=O)[C@H](Cc4ccc(O)cc4)NC(=O)[C@H](Cc4ccc(O)cc4)NC(=O)[C@H](CSSC[C@H](NC(=O)[C@@H]4CCCN4C(=O)[C@H](CCCCN)NC(=O)[C@H](CC(N)=O)NC1=O)C(=O)N[C@@H](CCCCN)C(=O)N[C@@H]([C@@H](C)O)C(=O)N[C@@H](Cc1c[nH]cn1)C(=O)N[C@@H](CC(=O)O)C(=O)N[C@@H](CC(=O)O)C(=O)N3)NC(=O)[C@H](C)NC(=O)[C@H](CCC(N)=O)NC2=O [3B3] (H-HADPICNKPCKTHDDCSGAWFCQACYYATWSCGPYVG-NH2; disulfide 6-22, 10-25, 16-32)
  inhibition at 10 µM: 57%

Source: article PMC11111691, “Cystine-knot peptide inhibitors of HTRA1 bind to a cryptic pocket within the active site region” (Nature Communications, 2024)
